Results published in article PMC6092981 (Bioinorganic Chemistry and Applications, 2018).
Structures can show the parent of a compound that is named as a salt. Where a SMILES comes first, the peptide text is derived from it. Where no end group is shown, it is not given here. The star is where a group is joined. Cbz = O=C(OCc1ccccc1)*; CH2F = FC*

Tests used:
Jurkat cells [1] = assay: MTT assay of Jurkat cells in the presence of caspase, necroptosis and necrosis inhibitors; format: cell-based, human; settings: Z-VAD-FMK 15 µM, 24 h, 37°C; for inhibition of cell death induced by 5: necrostatin-1 30 µM, IM-54 10 µM, 1 h pre-incubation, 5 75 µM, MTT
Procedure: Jurkat cells (1.0 × 10^5 cells/mL) were incubated in 10% FCS RPMI 1640 medium (MTG-free) containing a solution Z-VAD-fmk (15 µM)/necrostatin-1 (30 µM)/IM-54 (10 µM)/(under 5% CO2 at 37°C for 1 h in 96-well plates (BD Falcon). Then, Ir complexes (75 µM) were added and incubated under 5% CO2 at 37°C for 24 h, and then 0.5% MTT reagent in PBS buffer (10 µL) was added to the cells and incubated under 5% CO2 at 37°C for 4 h. A formazan lysis solution (10% SDS in 0.01 N HCl) (100 µL) was added, and the resulting solution incubated overnight under the same conditions, followed by measurement of absorbance at 570 nm with a microplate reader (Bio-Rad).

Jurkat cells [2] = assay: PI staining microscopy of Jurkat cells with 5 in the presence of inhibitors; format: cell-based, human; settings: nicardipine 50 µM, verapamil 20 µM, 37°C 1 h, then 5 (35 µM) 24 h
Procedure: The cells were then washed twice with ice-cold PBS containing 0.5% FCS and 0.1% NaN3 and incubated with PI in PBS at room temperature for 10–15 min.

[3] = molecular target: DR5 (immobilised on the QCM sensor chip) (UniProt O14763 56-440); assay: 27 MHz quartz crystal microbalance (QCM); DR5 immobilised by EDC/NHS on a 3,3'-dithiodipropionic acid layer on the Au electrode, blocked with ethanolamine; analytes added in PBS, 25°C; apparent constants from the decrease in frequency, 1:1 complexation assumed, Kd = 1/Kapp; settings: both partners purified

In the case of `COC(=O)C[C@H](NC(=O)[C@H](C)NC(=O)[C@@H](NC(=O)OCc1ccccc1)C(C)C)C(=O)CF` [Z-VAD-FMK, Z-Val-Ala-Asp(OMe) fluoromethylketone] (Cbz-Val-Ala-Asp(OMe)-CH2F), the “inhibition of cell death induced by 5” value (Jurkat cells [1]) is reported as “negligibly inhibited” and the “inhibition of TRAIL-induced cell death” value (Jurkat cells [1]; TRAIL 150 ng/mL, MTT and flow cytometry (PI)) is reported as “almost completely”.

In the case of `CCCCCNC1=C(c2cn(C)c3ccccc23)C(=O)N(C)C1=O` [IM-54], the “inhibition of cell death induced by 5” value (Jurkat cells [1]) is reported as “negligibly inhibited”.

With `CN1C(=O)C(Cc2c[nH]c3ccccc23)NC1=S` (stereo not shown) [Necrostatin-1] the “inhibition of cell death induced by 5” value (Jurkat cells [1]) was “negligibly inhibited”.

`COC(=O)C1=C(C)NC(C)=C(C(=O)OCCN(C)Cc2ccccc2)C1c1cccc([N+](=O)[O-])c1` (stereo not shown) [nicardipine, nicardipine hydrochloride] was tested, and the “inhibition of cell death induced by 5” value (Jurkat cells [2]) was “considerably inhibited”.

B1: Ir complex 2c (contains a KKGG peptide) (other)
peptide: KKGG
modifications: also: joined to a cyclometalated Ir(III) complex
notes: cationic peptide H2N-KKGG- on the Ir complex
B1 was tested, and the Ka [3] was < 10000 M⁻¹ and the Kd [3] was > 100 µM.
